Results published in patent US20070191373A1, “Heterocyclic compounds for use in the treatment of viral infections” (priority 2003, published 2007).
Read-outs that look alike come from different tables or passages of the source.

Experiments:
[1] = tested on: CMV strain Davis; experiment: CMV strain Davis induced cytopathicity in HEL cells; format: cell-based, cytomegalovirus (CMV); details: Human betaherpesvirus 5, 168 h, vs untreated control
Method: (§1) Products where X═Y═N, Z=Q=O, U═V═CH and R^1, R^4 and R^8 are as given in Tables 1 and 2 below embodying the present invention were tested in vitro in tissue cultures for toxicity and for potent antiviral actions with respect to cytomegalovirus (CMV).
EC50/μM CMV Davis is the drug concentration in μM required to reduce by 50% CMV strain Davis induced cytopathicity in human embryonic lung fibroblast (HEL) cells measured 7 days post infection compared to untreated control.
(§2) Further details of the methodology employed can be found in McGuigan et al. J. Med. Chem., 1999, 42, 4479-4484.

[2] = tested on: CMV strain AD169; experiment: CMV strain AD169 induced cytopathicity in HEL cells; format: cell-based, cytomegalovirus (CMV); details: Human betaherpesvirus 5, AD169, 168 h, vs untreated control
Method: as §1
EC50/μm CMV-AD169 is the drug concentration in μM required to reduce by 50% CMV strain AD169 induced cytopathicity in human embryonic lung fibroblast (HEL) cells measured 7 days post infection compared to untreated control.
as §2

[3] = Toxicity in tissue culture, reduction of cell number; format: cell-based; details: human, human embryonic lung fibroblast (HEL) cells, concentration reducing cell number by 50%
Method: as §1
CC50/μM is the compound concentration required to reduce the cell number by 50%.
as §2

[4] = Preliminary rodent trial, bioavailability and half life after i.p. dosing; format: in vivo
[5] = not given; remark: listed apart in the source
[6] = Table 1, 7 days post infection, read-out: EC50/μM 1 CMV Davis
[7] = Table 2, 7 days post infection, read-out: EC50/μM 2 CMV Davis

| EC50 [1, 6] | EC50 ([2]; Table 1, 7 days post infection) | EC50 [1, 7] | EC50 ([2]; Table 2, 7 days post infection) | Compound | CC50 ([3]; Table 2) | CC50 ([3]; Table 1) | further results |
| --- | --- | --- | --- | --- | --- | --- | --- |
| – | – | 16 µM | > 5 µM | CCCCCCCc1cc2cnc(OCCCCC)nc2o1 [Cf2191, 6-Heptyl-2-pentyloxy-furo[2,3-d]pyrimidine] | 1110 µM | – | melting point: 48 to 49 °C |
| – | – | > 200 µM | > 200 µM | CCCCCCCCCCc1cc2cnc(OCCCCC)nc2o1 [Cf2247] | > 200 µM | – | – |
| – | – | > 50 µM | > 50 µM | CCCCCCCCCCc1cc2cnc(OC3CCCC3)nc2o1 [Cf2250, 2-Cyclopentyloxy-6decyl-2,3-dihydrofuro[2,3-d]pyrimidine] | > 200 µM | – | – |
| – | – | 10 µM | 16 µM | CCCCCCCCCCc1cc2cnc(OC(CC)CC)nc2o1 [Cf2252] | 127 µM | – | – |
| – | – | 2.9 µM | 4.4 µM | CCCCCCCCCCc1cc2cnc(OCC3CCCCC3)nc2o1 [Cf2274, 2-Cyclohexylmethoxy-6-decyl-furo[2,3-d]pyrimidine] | > 200 µM | – | – |
| – | – | 16 µM | 12 µM | CCCCCCCCCCc1cc2cnc(OC3CCCCC3)nc2o1 [Cf2294] | > 200 µM | – | – |
| – | – | 2.1 µM | 2.5 µM | CCCCCCCCCCc1cc2cnc(OCCC)nc2o1 [Cf2303, 6-Decyl-2-propoxy-furo[2,3-d]pyrimidine] | 126 µM | – | – |
| – | – | 1.1 µM | 3.3 µM | CCCCCCCCCCc1cc2cnc(OCc3ccccc3)nc2o1 [Cf2307, 2-Benzyloxy-6-decyl-furo[2,3-d]pyrimidine] | > 200 µM | – | – |
| > 40 µM | > 40 µM | – | – | CCCCCCCCCCc1cc2cn(Cc3ccccc3)c(=O)nc2o1 [Cf2308, 3-Benzyl-6-decyl-3H-furo[2,3-d]pyrimidin-2-one] | – | > 200 µM | – |
| – | – | 3.9 µM | 10.5 µM | CCCCCCCCCCc1cc2cnc(OCc3ccc(C)cc3)nc2o1 [Cf2313, 6-Decyl-2-(4-methylbenzyloxy)-3H-furo[2,3-d]pyrimidine] | > 200 µM | – | – |
| > 40 µM | > 40 µM | – | – | CCCCCCCCCCc1cc2cn(Cc3ccc(C)cc3)c(=O)nc2o1 [Cf2314, 6-Decyl-3-(4-methylbenzyl)-3H-furo[2,3-d]pyrimidin-2-one] | – | > 200 µM | – |
| – | – | 2.9 µM | 3.3 µM | CCCCCCCCCCc1cc2cnc(OCc3ccc(OC)cc3)nc2o1 [Cf2315, 6-Decyl-2-(4-methoxybenzyloxy)-3H-furo[2,3-a]pyrimidine] | > 200 µM | – | – |
| > 200 µM | > 200 µM | – | – | CCCCCCCCCCc1cc2cn(Cc3ccc(OC)cc3)c(=O)nc2o1 [Cf2316, 6-Decyl-3-(4-methoxybenzyl)-3H-furo[2,3-d]pyrimidin-2-one] | – | > 200 µM | – |
| – | – | 3 µM | 8 µM | CCCCCCc1cc2cnc(OCCCC)nc2o1 [Cf2346, 2-Butyloxy-6-hexyl-furo[2,3-d]pyrimidine] | – | – | – |
| – | – | > 3.6 µM | > 200 µM | CCCCCCc1cc2cnc(OCc3ccccc3)nc2o1 [Cf2348, 2-Benzyloxy-6-hexyl-furo[2,3-d]pyrimidine] | – | – | – |

The next lines start with the compound.

| Compound | EC50 [1, 6] | EC50 ([2]; Table 1, 7 days post infection) | EC50 [1, 7] | EC50 ([2]; Table 2, 7 days post infection) | CC50 ([3]; Table 2) | CC50 ([3]; Table 1) | further results |
| --- | --- | --- | --- | --- | --- | --- | --- |
| CCCCc1cc2cn(C3CCCC3)c(=O)nc2o1 [Cf2158, 6-Butyl-3-cyclopentyl-3H-furo[2,3-d]pyrimidin-2-one] | > 50 µM | > 50 µM | – | – | – | – | – |
| CCCCc1cc2cnc(OC3CCCC3)nc2o1 [Cf2159, 6-Butyl-2-cyclopentyloxy-furo[2,3-d]pyrimidine] | – | – | 7 µM | 8 µM | 108 µM | – | melting point: 69 to 71 °C |
| CCCCCCCc1cc2cn(C3CCCC3)c(=O)nc2o1 [Cf2160] | 4 µM | 5 µM | – | – | – | 194 µM | – |
| CCCCCCCc1cc2cnc(OC3CCCC3)nc2o1 [Cf2161, 6-Heptyl-2-cyclopentyloxy-furo[2,3-d]pyrimidine] | – | – | 5 µM | 3 µM | 132 µM | – | bioavailability [4]: significant; visible in vivo toxicity ([5]; 50 mg/kg/day): no visible in vivo toxicity; histology: toxicity against brain, thymus, liver, lungs, kidney, breast, testi, ovum and spleen tissue ([5]; in vivo): no detectable toxicity |
| CCCCCCCc1cc2cnc(OC(CC)CC)nc2o1 [Cf2189, 6-Heptyl-2-(1-ethyl-propoxy)-furo[2,3-d]pyrimidine] | – | – | 12 µM | > 5 µM | 98 µM | – | melting point: 70 to 71 °C |
| CCCCCCCc1cc2cn(C(CC)CC)c(=O)nc2o1 [Cf2190, 6-Heptyl-3-(1-ethyl-propyl)-3H-furo[2,3-d]pyrimidin-2-one] | 50 µM | 20 µM | – | – | – | > 200 µM | – |
| CCCCCCCc1cc2cn(CCCCC)c(=O)nc2o1 [Cf2192, 6-Heptyl-3-pentyl-3H-furo[2,3-d]pyrimidin-2-one] | > 200 µM | > 200 µM | – | – | – | > 200 µM | – |
| CCCCc1cc2cnc(OC(CC)CC)nc2o1 [Cf2193, 6-Butyl-2-(1-ethyl-propoxy)-furo[2,3-d]pyrimidine] | – | – | > 20 µM | > 20 µM | 98 µM | – | – |
| CCCCc1cc2cn(C(CC)CC)c(=O)nc2o1 [Cf2194, 6-Butyl-3-(1-ethyl-propyl)-3H-furo[2,3-d]pyrimidin-2-one] | > 200 µM | > 50 µM | – | – | – | > 200 µM | – |
| CCCCCn1cc2cc(CCCC)oc2nc1=O [Cf2195, 6-Butyl-3-pentyl-3H-furo[2,3-d]pyrimidin-2-one] | > 50 µM | > 50 µM | – | – | – | > 200 µM | – |
| CCCCCCCc1cc2cn(C3CCCO3)c(=O)nc2o1 (centres unmarked) [Cf2196, 6-Heptyl-3-(tetrahydro-furan-2-yl)-3H-furo[2,3-d]pyrimidin-2-one] | > 20 µM | > 20 µM | – | – | – | 46 µM | – |
| CCCCCCCCCCc1cc2cn(C3CCCO3)c(=O)nc2o1 (centres unmarked) [Cf2249, 6-Decyl-3-(tetrahydro-furan-2′-yl)-2,3-dihydrofuro[2,3-d]pyrimidin-2-one] | 50 µM | > 50 µM | – | – | – | > 200 µM | – |
| CCCCCCCCCCc1cc2cn(CC3CCCCC3)c(=O)nc2o1 [Cf2275, 3-Cyclohexylmethyl-6-decyl-3H-furo[2,3-d]pyrimidin-2-one] | > 200 µM | > 200 µM | – | – | – | > 200 µM | – |
| CCCCCCCCCCc1cc2cn(C3CCOC3)c(=O)nc2o1 (centres unmarked) [Cf2276, 6-Decyl-3-(tetrahydro-furan-3-yl)-3H-furo[2,3-d]pyrimidin-None] | 10 µM | 20 µM | – | – | – | 148 µM | – |
| CCCCCCCCCCc1cc2cn(C3CCCCC3)c(=O)nc2o1 [Cf2295, 3-Cyclohexyl-6-decyl-2,3-dihydrofuro[2,3-d]pyrimidin-2-one] | 50 µM | 38 µM | – | – | – | > 200 µM | – |
| CCCCCCCCCCc1cc2cn(CCC)c(=O)nc2o1 [Cf2304, 6-Decyl-3-propyl-3H-furo[2,3-d]pyrimidin-2-one] | 8 µM | 40 µM | – | – | – | > 200 µM | – |
| CCCCCCCCCCc1cc2cnc(OCCCC)nc2o1 [Cf2305, 2-Butoxy-6decyl-furo[2,3-a]pyrimidine] | – | – | 2.7 µM | 3.9 µM | > 200 µM | – | – |
| CCCCCCCCCCc1cc2cn(CCCC)c(=O)nc2o1 [Cf2306, 3-Butyl-6-decyl-3H-furo[2,3-d]pyrimidin-2-one] | > 200 µM | > 200 µM | – | – | – | > 200 µM | – |
| CCCCCCCCCCc1cc2cn(CC3CCCO3)c(=O)nc2o1 (centres unmarked) [Cf2309, 6-Decyl-3-(tetrahydro-furan-2-ylmethyl)-3H-furo[2,3-d]pyrimidin-2-one] | 0.84 µM | 0.78 µM | – | – | – | 49 µM | – |
| CCCCCCc1cc2cn(C)c(=O)nc2o1 [Cf2344, 6-Hexyl-3-methyl-3H-furo[2,3-d]pyrimidin-2-one] | 20 µM | 18 µM | – | – | – | – | – |
| CCCCCCc1cc2cn(Cc3ccccc3)c(=O)nc2o1 [Cf2349, 3-Benzyl-6-hexyl-3H-furo[2,3-d]pyrimidin-2-one] | > 200 µM | > 200 µM | – | – | – | – | – |
| CCCCCOc1ncc2cc(CCCC)oc2n1 [Cf 2327] | – | – | – | – | – | – | melting point: 51 to 52 °C |
